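Where inhibition never reached the appropriate level, the endpoint shown equals the highest concentration tested. Otherwise, values were interpolated linearly from a five-concentration, 48-hour dose response in 96-well plates. TGI marks complete inhibition of growth.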
Tests used:
Assay in all cases: NCI tumour cell line growth inhibition, 48 h
[1] = test system: 786-0 renal
[2] = test system: A498 renal
[3] = test system: A549 NSCLC
[4] = test system: ACHN renal
[5] = test system: BT-549 breast
[6] = test system: CAKI-1 renal
[7] = test system: COLO 205 colon
[8] = test system: DU-145 prostate
[9] = test system: EKVX NSCLC
[10] = test system: HCC-2998 colon
[11] = test system: HCT-116 colon
[12] = test system: HCT-15 colon
[13] = test system: HOP-62 NSCLC
[14] = test system: HOP-92 NSCLC
[15] = test system: HT29 colon
[16] = test system: IGROV1 ovarian
[17] = test system: K-562 leukemia
[18] = test system: KM12 colon
[19] = test system: M14 melanoma
[20] = test system: MALME-3M melanoma
[21] = test system: MCF7 breast
[22] = test system: MDA-MB-231 breast
[23] = test system: MDA-MB-435
[24] = test system: MDA-N
[25] = test system: NCI-H226 lung
[26] = test system: NCI-H23 lung
[27] = test system: NCI-H460 lung
[28] = test system: NCI-H522 lung
[29] = test system: NCI/ADR-RES ovarian
[30] = test system: OVCAR-4 ovarian
[31] = test system: OVCAR-5 ovarian
[32] = test system: PC-3 prostate
[33] = test system: RPMI-8226 leukemia
[34] = test system: RXF 393 renal
[35] = test system: SF-268 CNS
[36] = test system: SF-295 CNS
[37] = test system: SK-MEL-2 melanoma
[38] = test system: SK-MEL-28 melanoma
[39] = test system: SK-MEL-5 melanoma
[40] = test system: SK-OV-3 ovarian
[41] = test system: SN12C renal
[42] = test system: SNB-19 CNS
[43] = test system: SNB-75 CNS
[44] = test system: SW-620 colon
[45] = test system: TK-10 renal
[46] = test system: U251 CNS
[47] = test system: UACC-257 melanoma
[48] = test system: UACC-62 melanoma
[49] = test system: UO-31 renal
[50] = test system: HS 578T breast
[51] = test system: LOX IMVI melanoma
[52] = test system: MOLT-4 leukemia
[53] = test system: OVCAR-3 ovarian
[54] = test system: OVCAR-8 ovarian
[55] = test system: SR leukemia

SMILES: NCCC(=O)N[C@H](Cc1cc(O)c(O)c(SCC(NC(=O)CC[C@H](N)C(=O)O)C(=O)NCC(=O)O)c1)C(=O)O (stereo partly specified)
- TGI [1]: > 50 µM
- TGI [2]: > 50 µM
- TGI [3]: > 50 µM
- TGI [4]: > 50 µM
- TGI [5]: > 50 µM
- TGI [6]: > 50 µM
- TGI [7]: > 50 µM
- TGI [8]: > 50 µM
- TGI [9]: > 50 µM
- TGI [10]: > 50 µM
- TGI [11]: > 50 µM
- TGI [12]: > 50 µM
- TGI [13]: > 50 µM
- TGI [14]: > 50 µM
- TGI [15]: > 50 µM
- TGI [16]: > 50 µM
- TGI [17]: > 50 µM
- TGI [18]: > 50 µM
- TGI [19]: > 50 µM
- TGI [20]: > 50 µM
- TGI [21]: > 50 µM
- TGI [22]: > 50 µM
- TGI [23]: > 50 µM
- TGI [24]: > 50 µM
- TGI [25]: > 50 µM
- TGI [26]: > 50 µM
- TGI [27]: > 50 µM
- TGI [28]: > 50 µM
- TGI [29]: > 50 µM
- TGI [30]: > 50 µM
- TGI [31]: > 50 µM
- TGI [32]: > 50 µM
- TGI [33]: > 50 µM
- TGI [34]: > 50 µM
- TGI [35]: > 50 µM
- TGI [36]: > 50 µM
- TGI [37]: > 50 µM
- TGI [38]: > 50 µM
- TGI [39]: > 50 µM
- TGI [40]: > 50 µM
- TGI [41]: > 50 µM
- TGI [42]: > 50 µM
- TGI [43]: > 50 µM
- TGI [44]: > 50 µM
- TGI [45]: > 50 µM
- TGI [46]: > 50 µM
- TGI [47]: > 50 µM
- TGI [48]: > 50 µM
- TGI [49]: > 50 µM

SMILES: CCC[C@H](O)[C@@H](CNc1cc(NC(C)=O)nc(NC(C)=O)n1)N(Cc1ccccc1)Cc1ccccc1
- TGI [1]: 38.6 µM
- TGI [2]: > 100 µM
- TGI [3]: 72.1 µM
- TGI [4]: 56.8 µM
- TGI [5]: 35.9 µM
- TGI [6]: 38.5 µM
- TGI [7]: > 100 µM
- TGI [8]: > 100 µM
- TGI [9]: 45.3 µM
- TGI [10]: > 100 µM
- TGI [11]: 54.1 µM
- TGI [12]: > 100 µM
- TGI [13]: 36.2 µM
- TGI [14]: > 100 µM
- TGI [50]: > 100 µM
- TGI [16]: 50.9 µM
- TGI [17]: > 100 µM
- TGI [18]: 39.1 µM
- TGI [51]: > 100 µM
- TGI [19]: > 100 µM
- TGI [20]: > 100 µM
- TGI [21]: 25.8 µM
- TGI [22]: > 100 µM
- TGI [23]: > 100 µM
- TGI [24]: > 100 µM
- TGI [52]: > 100 µM
- TGI [25]: 33.1 µM
- TGI [26]: 58.4 µM
- TGI [27]: > 100 µM
- TGI [28]: 27.2 µM
- TGI [29]: 73.3 µM
- TGI [53]: 55.6 µM
- TGI [30]: > 100 µM
- TGI [31]: > 100 µM
- TGI [54]: 35.1 µM
- TGI [32]: 33.5 µM
- TGI [33]: > 100 µM
- TGI [36]: 25.5 µM
- TGI [37]: > 100 µM
- TGI [38]: > 100 µM
- TGI [39]: > 100 µM
- TGI [40]: 63.4 µM
- TGI [41]: > 100 µM
- TGI [42]: > 100 µM
- TGI [43]: 34.8 µM
- TGI [55]: > 100 µM
- TGI [44]: > 100 µM
- TGI [45]: 45.1 µM
- TGI [46]: > 100 µM
- TGI [47]: > 100 µM
- TGI [48]: 57 µM
- TGI [49]: 48.6 µM

Reference: PubChem BioAssay (NCI)
